Measurements as given in patent US20220168400A1, “USE OF A MANGANESE SUPEROXIDE DISMUTASE WITH HIGH STABILITY IN THE PREVENTION OR TREATMENT OF CEREBRAL STROKE” (CARRY HEALTH BIOPHARMACEUTICALS (HANGZHOU) CO., LTD., priority 2019, published 2022).
Marks after values point to notes of the source that are not given here.

How the values were obtained:
Assay type in all cases: in vivo
[1] = system: cerebral hemorrhage model in wild-type AB strain zebrafish; test: Movement velocity in simvastatin-induced cerebral hemorrhage model in zebrafish; conditions: icariin 30 μM (Table 3 prints 25 μg/mL); for Movement velocity (mean ± SE): n = 10, model control 80, normal control 198 mm/s
Method: 5 dpf wild-type AB strain zebrafish was administered with an aqueous simvastatin solution (0.5 μM) for 18 hours to establish a cerebral hemorrhage model in zebrafish. 180 wild-type AB strain zebrafishes at 5 days post fertilization (5 dpf) were randomly selected and put in a six-well plate, 30 per well (experiment group). Aqueous MS-SOD solutions with concentrations of 222, 667 and 2000 μg/mL were administrated respectively, the concentration of positive control drug icariin was 30 μM, and the normal control group and the model control group were set at the same time. The volume of each well was 3 mL. After treatment of zebrafishes with samples for 4 hours, except for the normal control group, the other experiment groups were treated with simvastatin for 18 hours to establish the cerebral hemorrhage model. After the treatment, 10 zebrafishes from each group were randomly selected to measure the movement velocity (V) of zebrafish using a behavioral analyzer. The statistical significance of the movement velocity was used to evaluate the behavioral improvement effect of MS-SOD on cerebral hemorrhage. The formula of the behavioral improvement effect of MS-SOD on cerebral hemorrhage was as follows: [formula] Statistical analysis was performed using variance analysis and Dunnett's T-test, and p<0.05 indicated a significant difference.

[2] = system: cerebral hemorrhage model in wild-type AB strain zebrafish; test: Blood flow volume in simvastatin-induced cerebral hemorrhage model in zebrafish; conditions: icariin 30 μM; for Blood flow volume (mean ± SE): n = 10, model control 0.13, normal control 0.30 nL/s
Method: 3 dpf wild-type AB strain zebrafish was administered with an aqueous simvastatin solution (0.5 μM) for 18 hours to establish a cerebral hemorrhage model in zebrafish. 180 wild-type AB strain zebrafishes at 3 days post fertilization (3 dpf) were randomly selected and put in a six-well plate, 30 per well (experiment group). Aqueous MS-SOD solutions with concentrations of 222, 667 and 2000 μg/mL were administrated respectively, the concentration of positive control drug icariin was 30 μM, and the normal control group (the zebrafishes were treated with water for fish) and the model control group were set at the same time. The volume of each well was 3 mL. After treatment of zebrafishes with samples for 4 hours, except for the normal control group, the other experiment groups were treated with simvastatin for 18 hours to establish the cerebral hemorrhage model. After the treatment, 10 zebrafishes from each group were randomly selected and placed in a heart rate and blood flow analysis system to record blood flow video of zebrafish, and analyze the blood flow volume (O) of zebrafish. The statistical significance of the blood flow volume was used to evaluate the improvement effect of MS-SOD on blood flow volume of cerebral hemorrhage. The formula of the improvement effect of MS-SOD on blood flow volume of cerebral hemorrhage was as follows: [formula] Statistical analysis was performed using variance analysis and Dunnett's T-test, and p<0.05 indicated a significant difference. 4.

[3] = system: cerebral hemorrhage model in wild-type AB strain zebrafish; test: Simvastatin-induced cerebral hemorrhage model in zebrafish (incidence); conditions: icariin 30 μM; for Incidence of cerebral hemorrhage: model control 83%
Method: 1 dpf wild-type AB strain zebrafish was administered with an aqueous simvastatin solution (0.5 μM) for 18 hours to establish a cerebral hemorrhage model in zebrafish. 180 wild-type AB strain zebrafishes at 1 day post fertilization (1 dpf) were randomly selected and put in a six-well plate, 30 per well (experiment group). Simvastatin was used to induce a cerebral hemorrhage model in zebrafish. Aqueous MS-SOD solutions with concentrations of 222, 667 and 2000 μg/mL were administrated respectively, the concentration of positive control drug icariin was 30 μM, and the normal control group and the model control group were set at the same time. The volume of each well was 3 mL. After 18 hours of co-treatment with MS-SOD and simvastatin, 30 zebrafishes from each group were selected and observed under a microscope, photos were taken and saved. The number of zebrafish with cerebral hemorrhage was counted, and the incidence of cerebral hemorrhage in zebrafish of each experiment group was calculated.

[4] = system: cerebral ischemia model in Albino strain zebrafish; test: Ponatinib-induced cerebral ischemia model in zebrafish; conditions: aspirin 50 μg/mL; for Incidence of cerebral ischemia: model control 100%
Method: Melanin allele mutated Albino strain zebrafish at 2 days post fertilization (2 dpf) was administered with an aqueous ponatinib solution (1 μg/mL) for 18 hours to establish a cerebral ischemia model in zebrafish. 180 melanin allele mutated Albino strain zebrafishes at 2 days post fertilization (2 dpf) were randomly selected. 30 zebrafishes were treated in each well (experiment group), and aqueous MS-SOD solutions with concentrations of 222, 667 and 2000 μg/mL were administrated respectively, the concentration of positive control drug aspirin was 50 μg/m L, and the normal control group and the model control group were set at the same time. The volume of each well was 3 mL. After MS-SOD treatment for a period of time, except for the normal control group, all the other experiment groups were simultaneously administrated with aqueous ponatinib solution to induce the cerebral ischemia model in zebrafish. After 18 hours of co-treatment with MS-SOD and ponatinib, 20 fish were randomly selected from each well and stained with o-Dianisidine. After staining, photos were taken and data were collected to count the number of zebrafish with cerebral ischemia and calculate the incidence of cerebral ischemia in zebrafish of each experiment group.

| Structure (SMILES) | Movement improvement effect [1] | Movement velocity (mean ± SE) [1] | Movement velocity (mean ± SE) ([1]; listed as icariin) | Movement improvement effect ([1]; listed as icariin) | Blood flow volume improvement effect [2] | Blood flow volume (mean ± SE) [2] | Blood flow volume (mean ± SE) ([2]; listed as icariin) | Improvement effect on cerebral hemorrhage [3] | Number of zebrafish with cerebral hemorrhage ([3]; n = 30) | Incidence of cerebral hemorrhage ([3]; n = 30) | Incidence of cerebral hemorrhage ([3]; n = 30, listed as icariin) | Improvement effect on cerebral hemorrhage ([3]; listed as icariin) | Improvement effect on cerebral ischemia [4] | Number of zebrafish with cerebral ischemia ([4]; n = 20) | Incidence of cerebral ischemia ([4]; n = 20) | Incidence of cerebral ischemia ([4]; n = 20, listed as aspirin) | Improvement effect on cerebral ischemia ([4]; listed as aspirin) |
| --- | --- | --- | --- | --- | --- | --- | --- | --- | --- | --- | --- | --- | --- | --- | --- | --- | --- |
| COc1ccc(-c2oc3c(CC=C(C)C)c(O[C@@H]4O[C@H](CO)[C@@H](O)[C@H](O)[C@H]4O)cc(O)c3c(=O)c2O[C@@H]2O[C@@H](C)[C@H](O)[C@@H](O)[C@H]2O)cc1 [Icariin, icariin, reference compound] | 22* % | 106 ± 7 mm/s | 106 mm/s | 22% | 29% | 0.18 ± 0.025 nL/s | 0.18 nL/s | 32* % | 17 | 56* % | 57% | 32% | – | – | – | – | – |
| CC(=O)Oc1ccccc1C(=O)O [Aspirin, aspirin, reference compound] | – | – | – | – | – | – | – | – | – | – | – | – | 65*** % | 7 | 35*** % | 35% | 65% |
